Where “and” joins values, the source holds several entries; their conditions need not be identical. Identical values can stand only once. *1 amine or outer side, *2 acyl side, *3 side chain or, on linkers, in order; H or OH if unused. Where a SMILES comes first, the peptide text is derived from it. Side-chain parts run from the residue outwards. [ ]: non-standard residue; d: D form. The star is where a group is joined. C20 diacid = O=C(O)CCCCCCCCCCCCCCCCCCC(=O)*; γGlu = O=C(O)[C@H](CCC(=O)[*:2])N[*:1]; εLys = N[C@@H](CCCCN[*:1])C(=O)[*:2]; αMeL = CC(C)C[C@](C)(N)C(=O)O; AEEA = NCCOCCOCC(=O)O; Aib = CC(C)(N)C(=O)O
Columns and labels:
[1] = Pharmacokinetics in Sprague Dawley rats, single subcutaneous or intravenous dose (incl. 10, 30, 100 nmol/kg dose response); format: in vivo; conditions: for Tmax: read-out: Tmax
[2] = tested on: MHC-II presented peptides on human dendritic cells; experiment: MAPPS assay (MHC-Associated Peptide Proteomics); format: cell-based
Experimental: MAPPS profiles the MHC-II presented peptides on human dendritic cells treated with tested molecules. CD14+ cells, isolated from the PBMCs of normal human donors, were cultured and differentiated into immature DCs by incubation with IL-4 and GM-CSF. On day 4, culture media was replaced with fresh media containing tested molecules. On day 5, LPS was added to transform the cells into mature DCs. On day 6, cells were lysed in RIPA buffer with protease inhibitors. Immunoprecipitation of MHC-II complexes were performed using biotinylated anti-MHC-II antibody coupled to streptavidin beads. The bound complex was eluted and filtered. The isolated MHC-II peptides were analyzed by a mass spectrometer. Peptide identifications were generated by an internal proteomics pipeline using search algorithms with no enzyme and a bovine/human database with test sequences appended to the database. A KNIME workflow was used to process the identification files from the samples. Peptides identified from the test articles were aligned against the parent sequence of the test molecule. The output was used to determine the percentage of donors displaying MHC-II peptides from regions of the test molecule. Polypeptides comprising SEQ ID NOs:54, 49, 50, 29, 41, 45, 1, 22, 25 were tested in the MAPPs assay. […] Depending on the donors, up to three major clusters were observed, each slightly shifted from the others, altogether spanning residues 1-33.

[3] = Pharmacokinetics in Yucatan mini-pigs, single subcutaneous or intravenous dose; format: in vivo
Experimental: Plasma concentrations of compounds were determined by LC/MS methods. For each assay, the compound and an internal standard (IS), were extracted from 100% mouse, rat, pig, or monkey plasma (70 μL) using Isopropanol-Methanol. Two distinct layers were formed upon centrifugation with the compound and the IS located in the supernatant layer. An aliquot of the supernatant (150 μL) was transferred to a Waters Sirocco Protein Precipitation Plate. The supernatant was eluted using a positive pressure manifold. The supernatant was mixed with 100-2 Water-Formic acid (400 μL) in a pretreated Sep-Pak tC18 SPE plate and eluted to waste. The peptide and IS were eluted with Acetonitrile-Formic acid (100 μL) in 2 steps (50 μL each step). The elution (40 μL) from SPE plate was mixed with diluent solution (1.875 μL 5× invitrosol and 3.125 μL 1% formic acid in water, 80 μL). A final sample (10 μl) was loaded onto a Xselect CSH C18 IS column (3.5 μm 2.1×20 mm). The column effluent was directed into a Thermo Fisher Scientific Orbitrap (Exploris 240) mass spectrometer for detection and quantitation.
Male Yucatan mini-pigs were administered a single subcutaneous dose or intravenous dose (19 or 99 nmol/kg) of compound in 40 mM Tris-HCl 5% D-mannitol (pH 8) at a volume of 0.01 or 0.05 mL/kg. Blood was collected from each animal at 0.083 (IV only), 0.5, 3, 6, 24, 48, 72, 96, 168, 240, 336, 408, and 504 hours postdose for pharmacokinetic characterization.

[4] = male, Sprague Dawley, rat, plasma, iv, 196 nmol/kg, single intravenous dose 196 nmol/kg, individual animal
[5] = male, Sprague Dawley, rat, plasma, iv, 196 nmol/kg, single intravenous dose 196 nmol/kg, mean
[6] = male, Sprague Dawley, rat, plasma, sc, 196 nmol/kg, single subcutaneous dose 196 nmol/kg, individual animal
[7] = male, Sprague Dawley, rat, plasma, sc, 196 nmol/kg, single subcutaneous dose 196 nmol/kg, mean
[8] = single intravenous dose 196 nmol/kg, male Sprague Dawley rats, individual animal
[9] = single subcutaneous dose 196 nmol/kg, male Sprague Dawley rats, individual animal
[10] = Yucatan mini-pig, minipig, plasma, sc, male Yucatan pigs, single subcutaneous dose 19 nmol/kg, Mean, read-out: AUC0-inf
[11] = Yucatan mini-pig, minipig, plasma, sc, male Yucatan pigs, single subcutaneous dose 19 nmol/kg, Mean, read-out: Cmax
[12] = male Yucatan pigs, single subcutaneous dose 19 nmol/kg, individual animal
[13] = male, Yucatan mini-pig, minipig, plasma, iv, 19 nmol/kg, single intravenous dose 19 nmol/kg, individual animal
[14] = male, Yucatan mini-pig, minipig, plasma, iv, 19 nmol/kg, single intravenous dose 19 nmol/kg, mean
[15] = male, Yucatan mini-pig, minipig, plasma, sc, 19 nmol/kg, single subcutaneous dose 19 nmol/kg, Mean
[16] = male, Yucatan mini-pig, minipig, plasma, sc, 19 nmol/kg, single subcutaneous dose 19 nmol/kg, Mean, read-out: CL/F (converted)
[17] = male, Yucatan mini-pig, minipig, plasma, sc, 19 nmol/kg, single subcutaneous dose 19 nmol/kg, Mean, read-out: Tmax
[18] = male, Yucatan mini-pig, minipig, plasma, sc, 19 nmol/kg, single subcutaneous dose 19 nmol/kg, individual animal
[19] = minipig, plasma, single intravenous dose 19 nmol/kg, male Yucatan pigs, mean, read-out: AUC0-inf
[20] = minipig, plasma, single intravenous dose 19 nmol/kg, male Yucatan pigs, mean, read-out: C0
[21] = single intravenous dose 19 nmol/kg, male Yucatan pigs, individual animal

## CC[C@H](C)[C@H](NC(C)=O)C(=O)N[C@H](C(=O)N[C@H](C(=O)N[C@@H](CO)C(=O)N[C@@](C)(CC(C)C)C(=O)N[C@@H](CC(=O)O)C(=O)N[C@@H](C(=O)N1CCC[C@H]1C(=O)N[C@H](C(=O)NC(C)(C)C(=O)N[C@@](C)(CC(C)C)C(=O)N[C@@H](CC(C)C)C(=O)N[C@@H](CCC(N)=O)C(=O)N[C@H](C(=O)N[C@@H](CCCCN)C(=O)N[C@@H](CC(C)C)C(=O)N[C@@H](CCC(=O)O)C(=O)N[C@@H](CCC(N)=O)C(=O)N[C@@H](CCC(=O)O)C(=O)N[C@@H](CCCNC(=N)N)C(=O)N[C@@H](C)C(=O)N[C@@H](CCC(=O)O)C(=O)N[C@@H](CCCCN)C(=O)N[C@@H](C)C(=O)N[C@@H](CCCNC(=N)N)C(=O)N[C@@H](CCC(N)=O)C(=O)N[C@@H](CCC(N)=O)C(=O)N[C@@H](C)C(=O)N[C@@H](CCCCNC(=O)COCCOCCNC(=O)COCCOCCNC(=O)CC[C@H](NC(=O)CCCCCCCCCCCCCCCCCCC(=O)O)C(=O)O)C(=O)N[C@@H](CCC(=O)O)C(=O)N[C@@H](CC(N)=O)C(=O)N[C@H](C(=O)N[C@@H](CCC(=O)O)C(=O)N[C@H](C(=O)N[C@@H](CC(C)C)C(=O)N[C@@H](C)C(=O)N[C@@H](CCC(N)=O)C(=O)N[C@H](C(N)=O)C(C)C)[C@@H](C)CC)[C@@H](C)O)[C@@H](C)CC)[C@@H](C)O)C(C)C)[C@@H](C)O)C(C)C [SEQ ID NO: 41, Ac-IVTS αMeL D (D-Val) PT Aib αMeL LQIKLEQERAEKARQQAK((2-[2-(2-Amino-ethoxy)-ethoxy]-acetyl)2-γE-CO-(CH2)18-CO2H)ENTEILAQV-NH2] (Ac-IVTS[αMeL]D[dV]PT[Aib][αMeL]LQIKLEQERAEKARQQAK([AEEA-AEEA-γGlu-C20 diacid])ENTEILAQV-NH2)
[1]; [4]
  clearance: 3.91 mL/h/kg
  half-life: 2900 min
[1]; [5]
  clearance: 3.82 mL/h/kg
  half-life: 2740 min
[1]; [6]
  half-life: 2630 min
  Tmax: 24 h
[1]; male, Sprague Dawley, rat, plasma, sc, 196 nmol/kg, single subcutaneous dose 196 nmol/kg, individual animal, read-out: CL/F (converted)
  CL/F: 5.04 mL/h/kg
[1]; [7]
  half-life: 2360 min
  Tmax: 24 h
[1]; male, Sprague Dawley, rat, plasma, sc, 196 nmol/kg, single subcutaneous dose 196 nmol/kg, mean, read-out: CL/F (converted)
  CL/F: 4.47 mL/h/kg
[1]; rat, plasma, sc, single subcutaneous dose 196 nmol/kg, male Sprague Dawley rats, mean, read-out: AUC0-inf
  AUC0-inf: 48.1 µM·h
[1]; rat, plasma, sc, single subcutaneous dose 196 nmol/kg, male Sprague Dawley rats, mean, read-out: Cmax
  Cmax: 550 nM
[1]; rat, plasma, single intravenous dose 196 nmol/kg, male Sprague Dawley rats, mean, read-out: AUC0-inf
  AUC0-inf: 52.1 µM·h
[1]; rat, plasma, single intravenous dose 196 nmol/kg, male Sprague Dawley rats, mean, read-out: C0
  C0: 1190 nM
[1]; [8]
  AUC0-inf: 50.1 µM·h and 60.6 µM·h and 45.5 µM·h
  C0: 1350 nM and 1620 nM and 586 nM
  CL: 3.23 mL/h/kg and 4.31 mL/h/kg
  T1/2: 49.8 h and 39.0 h
[1]; [9]
  AUC0-inf: 43.1 µM·h and 56.2 µM·h and 45 µM·h
  CL/F: 3.73 mL/h/kg and 4.63 mL/h/kg
  Cmax: 467 nM and 645 nM and 539 nM
  T1/2: 36.5 h and 37.7 h
[2]; donors displaying MHC-II peptides / donors tested
  MAPPS Assay >10 donors with diverse MHC: 0/10
[2]; human dendritic cells from normal donors
  peptides displayed on MHC-II complexes: no peptides displayed on MHC-II complexes
[2]; in the MAPPs assay and/or the T cell proliferation assay
  immunogenicity compared with SEQ ID NO:54: substantial improvements in immunogenicity over a compound comprising SEQ ID NO:54
[2]; percentage of donors displaying MHC-II peptides
  MAPPS Assay >10 donors with diverse MHC: 0%

## Ac-GSPSIVTS[αMeL]DVPT[Aib][αMeL]LQKLLEQERAEKARQQAK([γGlu-AEEA-εLys-C20 diacid])EAAEILAQV-NH2 [SEQ ID NO: 2, Ac-GSPSIVTS αMeL DVPT Aib αMeL LQKLLEQERAEKARQQAK(γE-(2-[2-(2-Amino-ethoxy)-ethoxy]-acetyl)-ϵK-CO-(CH2)18-CO2H)EAAEILAQV-NH2]
[3]; [10]
  AUC0-inf: 18.1 µM·h
[3]; [11]
  Cmax: 107 nM
[3]; [12]
  AUC0-inf: 24.4 µM·h and 11.7 µM·h
  CL/F: 18.9 mL/day/kg and 39.1 mL/day/kg
  Cmax: 154 nM and 60.4 nM
  T1/2: 90.8 h
  Tmax: 6 h and 96 h
[3]; [13]
  clearance: 15.6 mL/day/kg
  half-life: 3.98 days
[3]; [14]
  clearance: 14.6 mL/day/kg
  half-life: 3.55 days
[3]; [15]
  half-life: 3.37 days
[3]; [16]
  CL/F: 29 mL/day/kg
[3]; [17]
  Tmax: 51 h
[3]; [18]
  half-life: 2.95 days
[3]; [19]
  AUC0-inf: 30.9 µM·h
[3]; [20]
  C0: 694 nM
[3]; [21]
  AUC0-inf: 28.9 µM·h and 32.8 µM·h
  C0: 809 nM and 578 nM
  CL: 0.571 mL/h/kg
  T1/2: 75.1 h

## Ac-PPPIVTS[αMeL]DVPT[Aib][αMeL]LQKLLEQERAEKARQQAK([γGlu-AEEA-εLys-C20 diacid])EAAEILAQV-NH2 [SEQ ID NO: 48, Ac-PPPIVTS αMeL DVPT Aib αMeL LQKLLEQERAEKARQQAK(γE-(2-[2-(2-Amino-ethoxy)-ethoxy]-acetyl)-ϵK-CO-(CH2)18-CO2H)EAAEILAQV-NH2]
[3]; [10]
  AUC0-inf: 32.5 µM·h
[3]; [11]
  Cmax: 149 nM
[3]; [12]
  AUC0-inf: 29.3 µM·h and 35.6 µM·h
  CL/F: 13.6 mL/day/kg
  Cmax: 140 nM and 157 nM
  T1/2: 66.8 h
  Tmax: 48 h and 6.0 h
[3]; [13]
  clearance: 13.9 mL/day/kg
  half-life: 3.61 days
[3]; [14]
  clearance: 12.5 mL/day/kg
  half-life: 3.67 days
[3]; [15]
  half-life: 2.85 days
[3]; [16]
  CL/F: 14.6 mL/day/kg
[3]; [17]
  Tmax: 27 h
[3]; [18]
  half-life: 2.92 days
[3]; male, Yucatan mini-pig, minipig, plasma, sc, 19 nmol/kg, single subcutaneous dose 19 nmol/kg, individual animal, read-out: CL/F (converted)
  CL/F: 15.7 mL/day/kg
[3]; [19]
  AUC0-inf: 36.9 µM·h
[3]; [20]
  C0: 943 nM
[3]; [21]
  AUC0-inf: 32.5 µM·h and 41.2 µM·h
  C0: 899 nM and 987 nM
  CL: 0.458 mL/h/kg
  T1/2: 89.2 h

Source: patent US20250163119A1, “COMPOUNDS FOR THE TREATMENT OF DIABETES OR OBESITY” (Eli Lilly and Company, priority 2023, published 2025)
